Laboratory results: paper PMC10326263 (Acta Pharmaceutica Sinica. B, 2023)

Key:
[1] = test system: HIV-1 mutant strain L100I; experiment: microbe, parasite or virus in culture; type: cell-based; conditions: Human immunodeficiency virus 1, MT4, read-out: EC50 L100I
[2] = test system: HIV-1 mutant strain RES056 (K103N + Y181C); experiment: microbe, parasite or virus in culture; type: cell-based; conditions: Human immunodeficiency virus 1, MT4, read-out: EC50 RES056
[3] = test system: HIV-1 mutant strain K103N; experiment: microbe, parasite or virus in culture; type: cell-based; conditions: Human immunodeficiency virus 1, MT4, read-out: EC50 K103N
[4] = test system: HIV-1 mutant strain F227L + V106A; experiment: microbe, parasite or virus in culture; type: cell-based; conditions: Human immunodeficiency virus 1, MT4, read-out: EC50 F227L + V106A
[5] = Cytotoxicity in mock-infected MT-4 cells, MTT method; type: cell-based; conditions: human, mock-infected MT-4 cells, CC50, mock-infected MT-4 cells
[6] = test system: HIV-1 mutant strain Y188L; experiment: microbe, parasite or virus in culture; type: cell-based; conditions: Human immunodeficiency virus 1, MT4, read-out: EC50 Y188L
[7] = test system: HIV-1 mutant strain E138K; experiment: microbe, parasite or virus in culture; type: cell-based; conditions: Human immunodeficiency virus 1, MT4, read-out: EC50 E138K
HIV-1 WT strain (IIIB) = experiment: Anti-HIV activity against WT HIV-1; conditions: WT HIV-1 IIIB
[8] = test system: HIV-1 mutant strain Y181C; experiment: microbe, parasite or virus in culture; type: cell-based; conditions: Human immunodeficiency virus 1, MT4, read-out: EC50 Y181C

SMILES	EC50 [1] [nM]	EC50 [2] [nM]	EC50 [3] [nM]	EC50 [4] [nM]	CC50 at 5 days [5] [nM]	EC50 [6] [nM]	EC50 [7] [nM]	SI IIIB (CC50/EC50 ratio) (HIV-1 WT strain (IIIB))	EC50 [8] [nM]
Cc1cc(C)cc(S(=O)(=O)c2c(C(=O)NCCNS(=O)(=O)c3ccccc3)[nH]c3ccc(Cl)cc23)c1 [R9L2, 5-Chloro-3-((3,5-dimethylphenyl)sulfonyl)-N-(2-(phenylsulfonamido)ethyl)-1H-indole-2-carboxamide]	260 ± 110	3140 ± 110	240 ± 37	1120 ± 350	185000 ± 8310	2810 ± 290	220 ± 73	13,509	260 ± 73
Cc1cc(C)cc(S(=O)(=O)c2c(C(=O)NCCCNS(=O)(=O)c3ccccc3)[nH]c3ccc(Cl)cc23)c1 [R9L3, 5-Chloro-3-((3,5-dimethylphenyl)sulfonyl)-N-(3-(phenylsulfonamido)propyl)-1H-indole-2-carboxamide]	180 ± 54	4760 ± 800	320 ± 72	800 ± 250	> 224000	3080 ± 250	55 ± 18	>8047	700 ± 270
Cc1cc(C)cc(S(=O)(=O)c2c(C(=O)NCCCCNS(=O)(=O)c3ccccc3)[nH]c3ccc(Cl)cc23)c1 [R9L4, 5-Chloro-3-((3,5-dimethylphenyl)sulfonyl)-N-(4-(phenylsulfonamido)butyl)-1H-indole-2-carboxamide]	28 ± 8.7	> 115000	150 ± 45	280 ± 52	113000 ± 26800	870 ± 170	31 ± 7	15,106	150 ± 33
Cc1cc(C)cc(S(=O)(=O)c2c(C(=O)NCCCCCNS(=O)(=O)c3ccccc3)[nH]c3ccc(Cl)cc23)c1 [R9L5, 5-Chloro-3-((3,5-dimethylphenyl)sulfonyl)-N-(5-(phenylsulfonamido)pentyl)-1H-indole-2-carboxamide]	44 ± 5	> 119000	340 ± 51	220 ± 85	129000 ± 6850	1460 ± 560	36 ± 7	8814	220 ± 17
Cc1cc(C)cc(S(=O)(=O)c2c(C(=O)NCCNS(=O)(=O)c3cccnc3)[nH]c3ccc(Cl)cc23)c1 [R10L2, 5-Chloro-3-((3,5-dimethylphenyl)sulfonyl)-N-(2-(pyridine-3-sulfonamido)ethyl)-1H-indole-2-carboxamide]	140 ± 46	4600 ± 310	290 ± 55	1480 ± 270	23400 ± 750	2200 ± 400	120 ± 33	3205	290 ± 18
Cc1cc(C)cc(S(=O)(=O)c2c(C(=O)NCCCNS(=O)(=O)c3cccnc3)[nH]c3ccc(Cl)cc23)c1 [R10L3, 5-Chloro-3-((3,5-dimethylphenyl)sulfonyl)-N-(3-(pyridine-3-sulfonamido)propyl)-1H-indole-2-carboxamide]	100 ± 32	7770 ± 2320	200 ± 36	540 ± 270	55100 ± 8070	2320 ± 110	43 ± 5	6950	200 ± 18
Cc1cc(C)cc(S(=O)(=O)c2c(C(=O)NCCCCCNS(=O)(=O)c3cccnc3)[nH]c3ccc(Cl)cc23)c1 [R10L5, 5-Chloro-3-((3,5-dimethylphenyl)sulfonyl)-N-(5-(pyridine-3-sulfonamido)pentyl)-1H-indole-2-carboxamide]	46 ± 14	10600 ± 6700	190 ± 34	140 ± 75	41900 ± 2180	730 ± 34	29 ± 12	5513	110 ± 22
Cc1cc(C)cc(S(=O)(=O)c2c(C(=O)NCCNS(=O)(=O)c3ccccc3F)[nH]c3ccc(Cl)cc23)c1 [R11L2, 5-Chloro-3-((3,5-dimethylphenyl)sulfonyl)-N-(2-((2-fluorophenyl)sulfonamido)ethyl)-1H-indole-2-carboxamide]	250 ± 71	3040 ± 210	210 ± 53	1230 ± 430	199000 ± 8290	2680 ± 250	200 ± 36	11,116	280 ± 36
